Molecules are shown by their SMILES. “And” between values parts separate entries of the source, which are not always exact repeats. Identical values can stand only once. Toxic doses and inconclusive results are not listed.

The subject of the test is L1210 leukemia ip in BDF1 mice, survival T/C. In words: NCI In Vivo Anticancer Drug Screen. Data for tumor model L1210 Leukemia (intraperitoneal) in B6D2F1 (BDF1) mice. The conditions noted are these: higher = longer survival. Summed up:
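Value reflects the ratio of survival in compound-treated mice to survival in vehicle-treated controls, with both groups carrying the same transplanted tumor.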

[1] abbreviates: endpoint: mean survival time, dose: 100.0 mg/kg/injection, schedule: Q04DX003 (ip), vehicle: Klucel (hydroxypropylcellulose) (HPC).

Consider `COC(=O)Nc1nc2ccc(C(=O)c3cccs3)cc2[nH]1`, for which the T/C runs as follows: (endpoint: mean survival time, dose: 10.0 mg/kg/injection, schedule: Q01DX009 (ip), vehicle: saline with Tween-80) 102 % of control; (endpoint: mean survival time, dose: 10.0 mg/kg/injection, schedule: Q04DX003 (ip), vehicle: Klucel (hydroxypropylcellulose) (HPC)) 98 % of control; (endpoint: mean survival time, dose: 20.0 mg/kg/injection, schedule: Q01DX009 (ip), vehicle: saline with Tween-80) 118 % of control; (endpoint: mean survival time, dose: 20.0 mg/kg/injection, schedule: Q04DX003 (ip), vehicle: Klucel (hydroxypropylcellulose) (HPC)) 101 % of control; (endpoint: mean survival time, dose: 40.0 mg/kg/injection, schedule: Q04DX003 (ip), vehicle: Klucel (hydroxypropylcellulose) (HPC)) 107 % of control; (endpoint: mean survival time, dose: 50.0 mg/kg/injection, schedule: Q04DX003 (ip), vehicle: Klucel (hydroxypropylcellulose) (HPC)) 108 % of control and 111 % of control. Besides, the T/C (endpoint: mean survival time, dose: 50.0 mg/kg/injection, schedule: Q04DX003 (ip), vehicle: saline with Tween-80) is 111 % of control; the T/C (endpoint: mean survival time, dose: 70.0 mg/kg/injection, schedule: Q04DX003 (ip), vehicle: other) is 157 % of control; the T/C (endpoint: mean survival time, dose: 75.0 mg/kg/injection, schedule: Q04DX003 (ip), vehicle: Klucel (hydroxypropylcellulose) (HPC)) is 111 % of control and 121 % of control; the T/C (endpoint: mean survival time, dose: 75.0 mg/kg/injection, schedule: Q04DX003 (ip), vehicle: other) was 117 % of control and 183 % of control and 210 % of control; the T/C (endpoint: mean survival time, dose: 80.0 mg/kg/injection, schedule: Q04DX003 (ip), vehicle: Klucel (hydroxypropylcellulose) (HPC)) was 94 % of control; the T/C (endpoint: mean survival time, dose: 80.0 mg/kg/injection, schedule: Q04DX003 (ip), vehicle: other) was 153 % of control. Also, the T/C is, setting by setting: (endpoint: mean survival time, dose: 100.0 mg/kg/injection, schedule: Q01DX009 (oral), vehicle: saline with Tween-80) 94 % of control; under setting [1], 115 % of control; (endpoint: mean survival time, dose: 100.0 mg/kg/injection, schedule: Q04DX003 (ip), vehicle: other) 114 % of control and 115 % of control and 89 % of control; (endpoint: mean survival time, dose: 100.0 mg/kg/injection, schedule: Q04DX003 (ip), vehicle: saline with Tween-80) 155 % of control and 170 % of control; (endpoint: mean survival time, dose: 150.0 mg/kg/injection, schedule: Q04DX003 (ip), vehicle: other) 104 % of control; (endpoint: mean survival time, dose: 160.0 mg/kg/injection, schedule: Q04DX003 (ip), vehicle: Klucel (hydroxypropylcellulose) (HPC)) 113 % of control. Moreover, the T/C is, setting by setting: (endpoint: mean survival time, dose: 200.0 mg/kg/injection, schedule: Q01DX009 (oral), vehicle: saline with Tween-80) 96 % of control; (endpoint: mean survival time, dose: 200.0 mg/kg/injection, schedule: Q04DX003 (oral), vehicle: saline with Tween-80) 104 % of control; (endpoint: mean survival time, dose: 400.0 mg/kg/injection, schedule: Q01DX009 (oral), vehicle: saline with Tween-80) 100 % of control; (endpoint: mean survival time, dose: 400.0 mg/kg/injection, schedule: Q04DX003 (oral), vehicle: saline with Tween-80) 97 % of control; (endpoint: mean survival time, dose: 600.0 mg/kg/injection, schedule: Q04DX003 (oral), vehicle: saline with Tween-80) 104 % of control; (endpoint: mean survival time, dose: 800.0 mg/kg/injection, schedule: Q04DX003 (oral), vehicle: saline with Tween-80) 89 % of control. For the same molecule, the T/C reads like this: (endpoint: mean survival time, dose: 1600.0 mg/kg/injection, schedule: Q04DX003 (oral), vehicle: saline with Tween-80) 104 % of control; (endpoint: median survival time, dose: 5.0 mg/kg/injection, schedule: Q01DX009 (ip), vehicle: other) 101 % of control; (endpoint: median survival time, dose: 7.5 mg/kg/injection, schedule: Q03HX016 (ip), vehicle: other) 158 % of control; (endpoint: median survival time, dose: 7.5 mg/kg/injection, schedule: Q03HX024 (ip), vehicle: other) 164 % of control; (endpoint: median survival time, dose: 10.0 mg/kg/injection, schedule: Q01DX009 (ip), vehicle: other) 117 % of control and 120 % of control; (endpoint: median survival time, dose: 10.0 mg/kg/injection, schedule: Q03HX016 (ip), vehicle: other) 158 % of control. The T/C (endpoint: median survival time, dose: 15.0 mg/kg/injection, schedule: Q03HX008 (ip), vehicle: other) is 177 % of control; the T/C (endpoint: median survival time, dose: 15.0 mg/kg/injection, schedule: Q03HX024 (ip), vehicle: other) is 88 % of control; the T/C (endpoint: median survival time, dose: 20.0 mg/kg/injection, schedule: Q01DX005 (ip), vehicle: other) was 151 % of control; the T/C (endpoint: median survival time, dose: 20.0 mg/kg/injection, schedule: Q01DX009 (ip), vehicle: other) was 121 % of control; the T/C (endpoint: median survival time, dose: 20.0 mg/kg/injection, schedule: Q08HX009 (ip), vehicle: other) is 119 % of control; the T/C (endpoint: median survival time, dose: 30.0 mg/kg/injection, schedule: Q01DX005 (ip), vehicle: other) was 153 % of control. Further, the T/C by setting is: (endpoint: median survival time, dose: 30.0 mg/kg/injection, schedule: Q01DX009 (ip), vehicle: other) 157 % of control; (endpoint: median survival time, dose: 35.0 mg/kg/injection, schedule: Q04DX003 (ip), vehicle: Klucel (hydroxypropylcellulose) (HPC)) 119 % of control; (endpoint: median survival time, dose: 35.0 mg/kg/injection, schedule: Q04DX003 (ip), vehicle: other) 123 % of control; (endpoint: median survival time, dose: 40.0 mg/kg/injection, schedule: Q04DX003 (ip), vehicle: other) 104 % of control; (endpoint: median survival time, dose: 50.0 mg/kg/injection, schedule: Q01DX005 (ip), vehicle: other) 86 % of control; (endpoint: median survival time, dose: 50.0 mg/kg/injection, schedule: Q01DX009 (ip), vehicle: other) 103 % of control. The T/C by setting is: (endpoint: median survival time, dose: 50.0 mg/kg/injection, schedule: Q04DX003 (ip), vehicle: Klucel (hydroxypropylcellulose) (HPC)) 119 % of control; (endpoint: median survival time, dose: 70.0 mg/kg/injection, schedule: Q04DX003 (ip), vehicle: Klucel (hydroxypropylcellulose) (HPC)) 119 % of control; (endpoint: median survival time, dose: 75.0 mg/kg/injection, schedule: Q04DX003 (oral), vehicle: other) 101 % of control; (endpoint: median survival time, dose: 80.0 mg/kg/injection, schedule: Q01DX001 (ip), vehicle: other) 157 % of control; (endpoint: median survival time, dose: 80.0 mg/kg/injection, schedule: Q08DX002 (ip), vehicle: other) 182 % of control; (endpoint: median survival time, dose: 90.0 mg/kg/injection, schedule: Q04DX003 (ip), vehicle: other) 167 % of control. Further, the T/C by setting is: (endpoint: median survival time, dose: 100.0 mg/kg/injection, schedule: Q01DX001 (ip), vehicle: other) 151 % of control; (endpoint: median survival time, dose: 100.0 mg/kg/injection, schedule: Q01DX009 (oral), vehicle: other) 102 % of control; (endpoint: median survival time, dose: 100.0 mg/kg/injection, schedule: Q04DX003 (iv), vehicle: other) 101 % of control; (endpoint: median survival time, dose: 130.0 mg/kg/injection, schedule: Q01DX001 (ip), vehicle: other) 155 % of control; (endpoint: median survival time, dose: 140.0 mg/kg/injection, schedule: Q08DX002 (ip), vehicle: other) 112 % of control; (endpoint: median survival time, dose: 150.0 mg/kg/injection, schedule: Q04DX003 (oral), vehicle: other) 119 % of control. Moreover, the T/C is, setting by setting: (endpoint: median survival time, dose: 160.0 mg/kg/injection, schedule: Q08DX002 (ip), vehicle: other) 153 % of control; (endpoint: median survival time, dose: 200.0 mg/kg/injection, schedule: Q01DX009 (oral), vehicle: other) 103 % of control; (endpoint: median survival time, dose: 300.0 mg/kg/injection, schedule: Q01DX009 (oral), vehicle: other) 109 % of control; (endpoint: median survival time, dose: 300.0 mg/kg/injection, schedule: Q04DX003 (oral), vehicle: other) 98 % of control; (endpoint: median survival time, dose: 400.0 mg/kg/injection, schedule: Q01DX009 (oral), vehicle: other) 108 % of control; (endpoint: median survival time, dose: 400.0 mg/kg/injection, schedule: Q04DX003 (oral), vehicle: other) 102 % of control. The T/C is, setting by setting: (endpoint: median survival time, dose: 500.0 mg/kg/injection, schedule: Q04DX003 (oral), vehicle: other) 97 % of control; (endpoint: median survival time, dose: 600.0 mg/kg/injection, schedule: Q04DX003 (oral), vehicle: other) 104 % of control.
With `C/C(CCC(=O)O)=N/Nc1nnc(N/N=C(/C)CCC(=O)O)c2ccccc12`, the T/C runs as follows: (endpoint: mean survival time, dose: 50.0 mg/kg/injection, schedule: Q01DX001 (ip), vehicle: saline) 102 % of control; (endpoint: mean survival time, dose: 100.0 mg/kg/injection, schedule: Q01DX001 (ip), vehicle: saline) 102 % of control; (endpoint: mean survival time, dose: 200.0 mg/kg/injection, schedule: Q01DX001 (ip), vehicle: saline) 102 % of control; (endpoint: mean survival time, dose: 400.0 mg/kg/injection, schedule: Q01DX001 (ip), vehicle: saline) 120 % of control.
Take `Cc1cccc(-c2nnc(C(Cl)(Cl)Cl)o2)c1`: the T/C under setting [1] is 106 % of control; the T/C (endpoint: mean survival time, dose: 200.0 mg/kg/injection, schedule: Q04DX003 (ip), vehicle: Klucel (hydroxypropylcellulose) (HPC)) is 97 % of control; the T/C (endpoint: mean survival time, dose: 400.0 mg/kg/injection, schedule: Q04DX003 (ip), vehicle: Klucel (hydroxypropylcellulose) (HPC)) is 97 % of control.
